Several values for one entry are separate records, joined by “and”; a condition that tells them apart may be missing. Equal values may be shown once.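 1) Cells in 96-well plates. 2) Compound, 48 h, 5 concentrations. 3) Linear interpolation between surrounding doses. 4) Unreached endpoint = highest concentration. GI50 = concentration required for 50% inhibition of growth. TGI: concentration producing complete growth inhibition.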
How the values were obtained:
Assay in all cases: DTP human tumour cell line panel, 48 h
OVCAR-4 ovarian = test system: OVCAR-4 ovarian
RPMI-8226 leukemia = test system: RPMI-8226 leukemia
XF 498 CNS = test system: XF 498 CNS
HL-60(TB) leukemia = test system: HL-60(TB) leukemia
NCI-H522 lung = test system: NCI-H522 lung
HOP-18 NSCLC = test system: HOP-18 NSCLC
SNB-78 CNS = test system: SNB-78 CNS
NCI/ADR-RES ovarian = test system: NCI/ADR-RES ovarian
HS 578T breast = test system: HS 578T breast
MDA-MB-435 = test system: MDA-MB-435

SMILES	TGI (OVCAR-4 ovarian)	TGI (RPMI-8226 leukemia)	TGI (XF 498 CNS)	TGI (HL-60(TB) leukemia)	TGI (NCI-H522 lung)	TGI (HOP-18 NSCLC)	TGI (SNB-78 CNS)	GI50 (NCI/ADR-RES ovarian)	TGI (NCI/ADR-RES ovarian)	GI50 (OVCAR-4 ovarian)	GI50 (HS 578T breast)	TGI (HS 578T breast)	GI50 (RPMI-8226 leukemia)	GI50 (HL-60(TB) leukemia)	GI50 (NCI-H522 lung)	GI50 (MDA-MB-435)	TGI (MDA-MB-435)	GI50 (HOP-18 NSCLC)
COC(=O)C1=CO[C@@H](OC2CC(CO)C(O)C(O)C2O)[C@@H]2[C@@H](C)[C@@H](OC(=O)/C=C/c3ccccc3)[C@@H](O)[C@H]12 (some centres not stated) (tested in a mixture with another compound)	> 100 µM	> 100 µM	> 100 µM	> 100 µM	> 100 µM	> 100 µM	–	–	–	–	–	–	–	–	–	–	–	–
Cn1c(=O)nc2n(-c3ccc(O)cc3)c3ccccc3nc-2c1=O	> 100 µM	> 100 µM	> 100 µM	> 100 µM	> 100 µM	> 100 µM	> 100 µM	–	–	–	–	–	–	–	–	–	–	–
C[N+](C)(C)CCC(=O)CC[N+](C)(C)C	34.8 µM	21.6 µM	46.6 µM	17.5 µM	29.4 µM	31.8 µM	50.8 µM	–	–	–	–	–	–	–	–	–	–	–
COC(=O)c1sc(C(=O)OC)c2c1CS(=O)C2	> 100 µM	> 100 µM	> 100 µM	> 100 µM	> 100 µM	> 100 µM	> 100 µM	–	–	–	–	–	–	–	–	–	–	–
N#CC(N)=Nc1ccccc1	> 100 µM	> 100 µM	–	> 100 µM	> 100 µM	> 100 µM	–	–	–	–	–	–	–	–	–	–	–	–
O=C1C2C3C=C4c5ccccc5N(c5ccccc5)C4(C2C(=O)N1c1ccccc1)C1C(=O)N(c2ccccc2)C(=O)C31 (configuration not stated)	–	–	> 100 µM	> 100 µM	–	> 100 µM	> 100 µM	–	–	–	–	–	–	–	–	–	–	–
O=C(COc1ccccc1Cl)N1N=C(c2ccc(Cl)cc2)CC1(O)c1ccccc1 (configuration not stated)	> 100 µM	> 100 µM	> 100 µM	> 100 µM	> 100 µM	–	> 100 µM	–	–	–	–	–	–	–	–	–	–	–
CC1=C(C(=O)Nc2ccccc2C)C(c2ccc(Cl)cc2)C(C(=O)Nc2ccccc2C)=C(C)N1	> 100 µM	> 100 µM	> 100 µM	> 100 µM	> 100 µM	> 100 µM	> 100 µM	–	–	–	–	–	–	–	–	–	–	–
Cc1c(/C=N/NC(=O)c2ccccc2O)c(=O)n(-c2ccccc2)n1C	> 100 µM	> 100 µM	> 100 µM	> 100 µM	> 100 µM	> 100 µM	> 100 µM	–	–	–	–	–	–	–	–	–	–	–
CCc1c(C#N)c(=O)[nH]c(=O)n1CCN1CCN(C(=O)NCCCCCCNC(=O)N2CCN(CCn3c(CC)c(C#N)c(=O)[nH]c3=O)CC2)CC1	> 100 µM	> 100 µM	> 100 µM	> 100 µM	–	> 100 µM	> 100 µM	–	–	–	–	–	–	–	–	–	–	–
O=C1C[C@H]2CCCN2[C@@H](c2ccccc2)C1	> 100 µM	> 100 µM	> 100 µM	> 100 µM	> 100 µM	> 100 µM	> 100 µM	–	–	–	–	–	–	–	–	–	–	–
C=C1CCC2C3(C)COC(C)(C)OC3CCC2(C)C1C/C=C1/C(=O)OCC1OC(C)=O (configuration not stated)	10.1 µM	7.49 µM	–	7.14 µM	2 µM	–	–	3.06 µM	11.1 µM	2.6 µM	2.75 µM	9.59 µM	2.24 µM	2.55 µM	0.476 µM	2.54 µM	11.3 µM	–
Oc1cccc(Nc2nc3ccccc3c3occc23)c1	22.1 µM	18.2 µM	–	61.7 µM	28.8 µM	–	–	11.3 µM	23.4 µM	3.8 µM	13.9 µM	31.4 µM	4.98 µM	5.22 µM	14.5 µM	3.04 µM	14.8 µM	–
COC1=NCc2ccccc2-c2ccccc21	> 100 µM	–	> 100 µM	> 100 µM	> 100 µM	> 100 µM	> 100 µM	–	–	–	–	–	–	–	–	–	–	–
c1ccc(NN(Cc2cnccn2)c2ccccc2)cc1	> 100 µM	> 100 µM	–	> 100 µM	> 100 µM	–	–	–	> 100 µM	–	–	> 100 µM	–	–	–	–	> 100 µM	–
C=CCc1c(Cl)nc(Cl)nc1Cl	0.84 µM	> 100 µM	–	> 100 µM	0.19 µM	–	–	–	> 49.4 µM	–	–	4.14 µM	–	–	–	–	1.4 µM	–
CN(C)c1cc2ccccc2oc1=O	> 100 µM	> 100 µM	–	> 100 µM	> 100 µM	–	–	–	> 100 µM	–	–	> 100 µM	–	–	–	–	> 100 µM	–
COc1ccc2nccc(C3=CCC4CCN(C(=O)c5ccccc5)C3C4)c2c1 (configuration not stated)	> 100 µM	> 100 µM	> 100 µM	> 100 µM	> 100 µM	–	> 100 µM	–	–	–	–	–	–	–	–	–	–	–
Cc1ccc(S(=O)(=O)SC/C=C\CSS(=O)(=O)c2ccc(C)cc2)cc1	> 100 µM and 41.2 µM	16.5 µM and 47 µM	> 100 µM and 43.9 µM	–	15.6 µM and 30.8 µM	> 100 µM and 82.5 µM	> 100 µM and 89.5 µM	–	> 100 µM	53.1 µM and 20.1 µM	–	> 100 µM	–	–	3.79 µM and 17.1 µM	–	27.6 µM	> 100 µM and 35.6 µM

From PubChem BioAssay (NCI)
